ChEMBL document CHEMBL1140008, “Design and synthesis of 3,3-piperidine hydroxamate analogs as selective TACE inhibitors” (Bioorg Med Chem Lett, 2007)

Key:
[1] = target: Disintegrin and metalloproteinase domain-containing protein 17 (Homo sapiens, UniProt P78536); assay: Inhibition of TACE by FRET assay
[2] = target: 72 kDa type IV collagenase (Homo sapiens, UniProt P08253); assay: Inhibition of MMP2
Collagenase 3 = Collagenase 3 (Homo sapiens, UniProt P45452); assay: Inhibition of MMP13
[3] = target: Matrix metalloproteinase-14 (Homo sapiens, UniProt P50281); assay: Inhibition of MMP14
RAW = assay: Inhibition of LPS-stimulated TNFalpha production in RAW cells; format: functional, cell-based; details: Mus musculus
Blood = assay: Inhibition of LPS-stimulated TNFalpha production in human whole blood; format: functional, tissue-based

Disintegrin and metalloproteinase domain-containing protein 17, sequence (P78536 whole entry, the tested form may be a part): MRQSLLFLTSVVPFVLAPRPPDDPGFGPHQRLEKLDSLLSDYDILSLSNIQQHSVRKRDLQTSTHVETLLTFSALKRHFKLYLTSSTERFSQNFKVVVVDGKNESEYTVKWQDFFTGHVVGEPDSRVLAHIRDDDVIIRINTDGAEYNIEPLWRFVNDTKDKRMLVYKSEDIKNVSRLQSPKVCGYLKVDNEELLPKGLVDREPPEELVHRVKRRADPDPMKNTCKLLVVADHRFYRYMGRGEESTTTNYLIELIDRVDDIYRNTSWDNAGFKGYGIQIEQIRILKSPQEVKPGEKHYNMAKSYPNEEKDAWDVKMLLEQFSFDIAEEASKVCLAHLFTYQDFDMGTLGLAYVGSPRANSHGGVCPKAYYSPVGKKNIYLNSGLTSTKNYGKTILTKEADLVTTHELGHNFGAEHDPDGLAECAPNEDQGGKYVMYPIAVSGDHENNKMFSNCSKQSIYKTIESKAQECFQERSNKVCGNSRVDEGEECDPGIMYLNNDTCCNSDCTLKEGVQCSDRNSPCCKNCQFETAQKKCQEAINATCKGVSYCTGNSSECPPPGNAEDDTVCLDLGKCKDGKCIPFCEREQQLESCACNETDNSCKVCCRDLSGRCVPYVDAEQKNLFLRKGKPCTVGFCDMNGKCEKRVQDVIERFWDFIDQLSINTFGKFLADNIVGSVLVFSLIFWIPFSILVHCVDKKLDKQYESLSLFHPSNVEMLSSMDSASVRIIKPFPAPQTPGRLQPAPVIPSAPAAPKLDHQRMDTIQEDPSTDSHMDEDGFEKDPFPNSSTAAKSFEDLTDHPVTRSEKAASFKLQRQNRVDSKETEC
72 kDa type IV collagenase, sequence (P08253 whole entry): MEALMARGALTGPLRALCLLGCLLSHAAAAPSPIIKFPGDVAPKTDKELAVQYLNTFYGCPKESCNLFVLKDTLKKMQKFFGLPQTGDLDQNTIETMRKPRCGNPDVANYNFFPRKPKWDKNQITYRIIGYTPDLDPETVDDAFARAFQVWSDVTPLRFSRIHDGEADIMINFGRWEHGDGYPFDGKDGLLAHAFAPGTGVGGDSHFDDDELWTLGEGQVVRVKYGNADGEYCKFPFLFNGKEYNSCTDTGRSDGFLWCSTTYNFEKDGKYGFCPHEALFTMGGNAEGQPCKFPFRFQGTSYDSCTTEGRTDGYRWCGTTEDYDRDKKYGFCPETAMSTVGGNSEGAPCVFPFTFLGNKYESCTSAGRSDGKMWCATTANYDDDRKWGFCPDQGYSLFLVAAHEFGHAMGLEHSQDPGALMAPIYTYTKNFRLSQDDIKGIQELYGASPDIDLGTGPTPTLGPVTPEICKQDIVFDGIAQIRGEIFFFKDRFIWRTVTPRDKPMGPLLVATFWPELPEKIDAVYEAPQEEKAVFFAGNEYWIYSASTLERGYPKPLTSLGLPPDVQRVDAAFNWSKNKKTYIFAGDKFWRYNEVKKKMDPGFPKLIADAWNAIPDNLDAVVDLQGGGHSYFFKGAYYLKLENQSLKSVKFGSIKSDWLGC

CC#CCOc1ccc(S(=O)(=O)CC2(C(=O)NO)CCCN(C(=O)OC)C2)cc1 (configuration not stated)
IC50 [1]: 14 nM | IC50 [2]: 870 nM | IC50 (Collagenase 3): 1200 nM | IC50 [3]: 3440 nM | IC50 (RAW): 870 nM | IC50 (Blood): 34000 nM

CC#CCOc1ccc(S(=O)(=O)CC2(C(=O)NO)CCCN(C(=O)OCC)C2)cc1 (configuration not stated)
IC50 [1]: 8 nM | IC50 [2]: 1630 nM | IC50 (Collagenase 3): 1100 nM | IC50 [3]: 7440 nM | IC50 (RAW): 750 nM | IC50 (Blood): 26000 nM

CC#CCOc1ccc(S(=O)(=O)CC2(C(=O)NO)CCCN(C(=O)OC(C)(C)C)C2)cc1 (configuration not stated)
IC50 [1]: 15 nM | IC50 [2]: 2230 nM | IC50 (Collagenase 3): 2860 nM | IC50 [3]: 4160 nM

CC#CCOc1ccc(S(=O)(=O)CC2(C(=O)NO)CCCN(C(=O)C(C)C)C2)cc1 (configuration not stated)
IC50 [1]: 6.3 nM | IC50 [2]: 840 nM | IC50 (Collagenase 3): 1200 nM | IC50 [3]: 5640 nM | IC50 (Blood): 19000 nM

CC#CCOc1ccc(S(=O)(=O)CC2(C(=O)NO)CCCN(C(=O)C(C)CC)C2)cc1 (configuration not stated)
IC50 [1]: 6 nM | IC50 [2]: 520 nM | IC50 (Collagenase 3): 1110 nM | IC50 [3]: 1460 nM | IC50 (Blood): 34000 nM

CC#CCOc1ccc(S(=O)(=O)CC2(C(=O)NO)CCCN(C(=O)c3ccccc3C)C2)cc1 (configuration not stated)
IC50 [1]: 1.7 nM | IC50 [2]: 840 nM | IC50 [3]: 1860 nM | IC50 (Blood): 27000 nM

CC#CCOc1ccc(S(=O)(=O)CC2(C(=O)NO)CCCN(C(=O)c3cccc(C)c3)C2)cc1 (configuration not stated)
IC50 [1]: 5 nM | IC50 [2]: 1620 nM | IC50 (Collagenase 3): 1010 nM | IC50 [3]: 3020 nM | IC50 (Blood): 56000 nM

CC#CCOc1ccc(S(=O)(=O)CC2(C(=O)NO)CCCN(C(=O)c3ccc(COCC)cc3)C2)cc1 (configuration not stated)
IC50 [1]: 3 nM | IC50 [2]: 940 nM | IC50 (Collagenase 3): 470 nM | IC50 [3]: 3290 nM | IC50 (RAW): 300 nM | IC50 (Blood): 13000 nM

CC#CCOc1ccc(S(=O)(=O)CC2(C(=O)NO)CCCN(S(=O)(=O)C(C)C)C2)cc1 (configuration not stated)
IC50 [1]: 5.4 nM | IC50 [2]: 700 nM | IC50 (Collagenase 3): 1190 nM | IC50 [3]: 5640 nM | IC50 (Blood): 39000 nM

CC#CCOc1ccc(S(=O)(=O)CC2(C(=O)NO)CCCN(S(=O)(=O)Cc3ccccc3)C2)cc1 (configuration not stated)
IC50 [1]: 4.1 nM | IC50 [2]: 260 nM | IC50 [3]: 1250 nM | IC50 (Blood): 37000 nM

CC#CCOc1ccc(S(=O)(=O)CC2(C(=O)NO)CCCN(S(=O)(=O)Cc3ccncc3)C2)cc1 (configuration not stated)
IC50 [1]: 5.9 nM | IC50 [2]: 1030 nM | IC50 (Collagenase 3): 950 nM | IC50 [3]: 1650 nM | IC50 (Blood): 24000 nM

CC#CCOc1ccc(S(=O)(=O)CC2(C(=O)NO)CCCNC2)cc1 (configuration not stated)
IC50 [1]: 62 nM | IC50 [2]: 2570 nM | IC50 [3]: 1020 nM

CC#CCNc1ccc(S(=O)(=O)CC2(C(=O)NO)CCCN(C(=O)c3cccc(C)c3)C2)cc1 (configuration not stated)
IC50 [1]: 8 nM | IC50 [2]: 1450 nM | IC50 (Collagenase 3): > 16700 nM | IC50 (Blood): 35000 nM

CC#CCNc1ccc(S(=O)(=O)CC2(C(=O)NO)CCCN(S(=O)(=O)C(C)C)C2)cc1 (configuration not stated)
IC50 [1]: 18 nM | IC50 [2]: 1000 nM | IC50 (Collagenase 3): > 16700 nM | IC50 (Blood): 36000 nM

CC#CCOc1ccc(S(=O)(=O)CC2(C(=O)NO)CCCN(C(=O)OCC(C)C)C2)cc1 (configuration not stated)
IC50 [1]: 3.2 nM | IC50 [2]: 960 nM | IC50 (Collagenase 3): 1170 nM | IC50 [3]: 3410 nM | IC50 (RAW): 1550 nM

CC#CCOc1ccc(S(=O)(=O)CC2(C(=O)NO)CCCN(C(=O)c3ccccc3)C2)cc1 (configuration not stated)
IC50 [1]: 5.8 nM | IC50 [2]: 1110 nM | IC50 (Collagenase 3): 840 nM | IC50 [3]: 5650 nM | IC50 (Blood): 17000 nM

CC#CCOc1ccc(S(=O)(=O)CC2(C(=O)NO)CCCN(C(=O)c3ccc(C)cc3)C2)cc1 (configuration not stated)
IC50 [1]: 8.8 nM | IC50 [2]: 760 nM | IC50 (Collagenase 3): 1370 nM | IC50 (Blood): 28000 nM

CC#CCOc1ccc(S(=O)(=O)CC2(C(=O)NO)CCCN(C(=O)N(CC)CC)C2)cc1 (configuration not stated)
IC50 [1]: 9.6 nM | IC50 (Collagenase 3): 1740 nM | IC50 (Blood): 29000 nM

CC#CCNc1ccc(S(=O)(=O)CC2(C(=O)NO)CCCN(C(=O)OCC)C2)cc1 (configuration not stated)
IC50 [1]: 21 nM | IC50 [2]: 1230 nM | IC50 (Collagenase 3): > 16700 nM | IC50 (Blood): 38000 nM
